Measured values published in article PMC6743422, “Preclinical disposition of MGS0274 besylate, a prodrug of a potent group II metabotropic glutamate receptor agonist MGS0008 for the treatment of schizophrenia” (Pharmacology Research & Perspectives, 2019).
Where two headings read alike, the source gives them in different places.

Experiments:
[1] = system: positive and negative symptoms of schizophrenia; design: method as in PMID 17767166; conditions: phase 2 proof-of-concept trial, compared with placebo; cited from earlier work
[2] = humans, cited from earlier work; for oral bioavailability compared with parent compounds: transportable prodrugs
schizophrenia = system: schizophrenia; design: method as in PMID 24772351; conditions: phase 3 clinical trial; cited from earlier work
[3] = design: method as in PMID 17767166; conditions: humans; cited from earlier work
[4] = design: method as in PMID 25382826; conditions: monkeys; cited from earlier work
[5] = design: method as in PMID 25382826, PMID 17228865; conditions: rats; cited from earlier work
CYP1A2 mRNA = assay: CYP induction in primary cultured cryopreserved human hepatocytes, CYP1A2 mRNA; assay type: in vitro ADME; conditions: positive control omeprazole 50 μM
Experimental: (§1) The primary cultured cryopreserved human hepatocytes were plated in a collagen‐coated 96‐well plate (Becton Dickinson, Franklin Lakes, NJ) with Williams’ Medium E (Invitrogen, Carlsbad, CA) containing Geltrex^TM (Invitrogen) and Maintenance Supplements (Invitrogen) and maintained in humidified air‐5% CO2 at 37°C for 3 days. Then, the cells were cultured for three consecutive 24‐hour treatments with MGS0008 (3‐30 µmol/L), with MGS0274 besylate (3‐30 µmol/L), or with positive controls (omeprazole for CYP1A2 at 50 µmol/L, phenobarbital for CYP2B6 at 1000 µmol/L, or rifampicin for CYP3A4 at 10 µmol/L). The mRNA expression levels of CYP1A2, 2B6, and 3A4 were measured using the real‐time polymerase chain reaction (RT‐PCR) method (7500 Fast RT‐PCR system; Applied Biosystems, Foster City, CA) with TaqMan® Fast Universal PCR Master Mix (probe ID: Hs00167927_m1 for CYP1A2, Hs04183483_g1 for CYP2B6, and Hs00604506_ml for CYP3A4; Applied Biosystems). The fold change in the mRNA expression was calculated using the 2^‐ΔΔCT method.22

[6] = Plasma protein binding in human plasma; assay type: in vitro ADME; conditions: pH 7.4, 0.1, 1, and 10 μg/mL as MGS0274, equilibrium dialysis 5 h, 37°C
Experimental: (§2) [^14C]MGS0008 was spiked with rat, monkey, or human plasma at final concentrations of 0.1, 1, and 10 μg/mL. The protein binding was evaluated according to a previously published method.11 MGS0274 besylate was spiked with monkey or human plasma at final concentrations of 0.1, 1, and 10 μg/mL as MGS0274, which was placed in a donor compartment of a 96‐well equilibrium dialysis plate (Dialysis Membrane Strips MWCO 12‐14K; HT Dialysis, Gales Ferry, CT). Sodium phosphate buffer (0.05 M, pH7.4) containing sodium chloride (0.07 M) was placed in a reservoir compartment. After incubation for 5 hours at a rate of 100 rpm at 37°C in humidified air‐5% CO2, aliquots of the plasma and dialysate were collected from each compartment, mixed with acetonitrile/methanol (9:1, v/v) containing [^2H4]MGS0274 besylate, and centrifuged. Aliquots of the supernatant were subjected to bioanalysis using liquid chromatography‐tandem mass spectrometry (LC‐MS/MS) (see Table S1‐A). The protein binding (%) was calculated based on the instruction manual of the 96‐well plate.

[7] = Hydrolytic activity against MGS0274 in human serum and tissue S9 fractions; assay type: in vitro ADME
Experimental: (§3) Rat, monkey, or human serum that had been pre‐incubated for 5 minutes at 37°C was spiked with MGS0274 besylate at 10 μmol/L. After incubation for 5 to 60 minutes, the reaction was terminated by adding acetonitrile/methanol/formic acid (90:10:1, v/v/v) containing [^13C2 ^15N]MGS0008, and the resultant mixture was centrifuged. Tissue S9 fractions with final protein concentrations of 0.25 mg/mL were pre‐incubated for 5 minutes at 37°C, then spiked with MGS0274 besylate at 10 μmol/L. After incubation for 1 to 5 minutes, the reaction was terminated by adding acetonitrile/methanol/formic acid (90:10:1, v/v/v) containing [^13C2 ^15N]MGS0008, and the resultant mixture was centrifuged. Aliquots of the supernatant were subjected to bioanalysis using LC‐MS/MS (see Table S1‐C). The formation rate of MGS0008 from MGS0274 in the reaction mixture was calculated using the following equation: Formation ratenmol/min/mg protein=concentration of MGS0008,nmol/mL/incubation time,min/protein concentration,mg protein/mL

[8] = Hydrolytic activity against MGS0274 in rat serum and tissue S9 fractions; assay type: in vitro ADME; conditions: rat serum
Experimental: as §3

[9] = Hydrolytic activity against MGS0274 in monkey serum and tissue S9 fractions; assay type: in vitro ADME; conditions: monkey serum
Experimental: as §3

[10] = Plasma protein binding in monkey plasma; assay type: in vitro ADME, cynomolgus monkey; conditions: pH 7.4, 0.1, 1, and 10 μg/mL as MGS0274, equilibrium dialysis 5 h, 37°C
Experimental: as §2

[11] = system: monkey cryopreserved hepatocytes; assay: In vitro metabolite profiling in monkey cryopreserved hepatocytes; assay type: in vitro ADME; conditions: monkey hepatocytes 0.5 million cells/mL, 37°C, 1 h, [14C]MGS0274 besylate 10 μmol/L
Experimental: (§4) Rat, monkey, or human cryopreserved hepatocytes in Leivovitz L‐15 medium at 0.5 million cells/mL were incubated at 37°C for 1 hour with [^14C]MGS0274 besylate at 10 μmol/L. The reaction was terminated by adding 10% w/v trichloroacetic acid solution, and the resultant mixture was centrifuged. Aliquots of the supernatant were subjected to bioanalysis using high‐performance liquid chromatography equipped with radiochemical flow detection (RI‐HPLC) (see Table S1‐B). Aliquots of the supernatant from unlabeled incubation samples and authentic standards were also injected into a liquid chromatography‐mass spectrometry (LC‐MS) system under the same chromatographic conditions to compare their chromatographic retention times and mass spectral data (see Table S1‐B).

[12] = system: human cryopreserved hepatocytes; assay: In vitro metabolite profiling in human cryopreserved hepatocytes; assay type: in vitro ADME; conditions: human hepatocytes 0.5 million cells/mL, 37°C, 1 h, [14C]MGS0274 besylate 10 μmol/L
Experimental: as §4

Stability in buffers = assay type: physicochemical; conditions: pH 1.2 and 6.5 as surrogate for gastrointestinal fluids; data not shown
[13] = system: rat cryopreserved hepatocytes; assay: In vitro metabolite profiling in rat cryopreserved hepatocytes; assay type: in vitro ADME; conditions: rat hepatocytes 0.5 million cells/mL, 37°C, 1 h, [14C]MGS0274 besylate 10 μmol/L
Experimental: as §4

[14] = design: method as in earlier work; conditions: cited from earlier work
CYP2B6 mRNA = assay: CYP induction in primary cultured cryopreserved human hepatocytes, CYP2B6 mRNA; conditions: positive control phenobarbital 1000 μM
Experimental: as §1

[15] = design: method as in PMID 17712352, PMID 11744608; conditions: dogs; cited from earlier work

Compound: CSCC[C@H](N)C(=O)N[C@@]1(C(=O)O)CS(=O)(=O)[C@H]2[C@H](C(=O)O)[C@H]21 [LY2140023]
- effect on positive and negative symptoms of schizophrenia [1]: significantly improved
- oral bioavailability compared with parent compounds [2]: improved oral bioavailability
- efficacy in schizophrenia (schizophrenia): failed to demonstrate efficacy
- systemic exposure to the prodrug, relative to its parent compound [3]: roughly 30%
- systemic exposure to the prodrug, share of circulating radioactivity [4]: ~15%

Compound: N[C@@]1(C(=O)O)CS(=O)(=O)[C@H]2[C@H](C(=O)O)[C@H]21 [LY404039]
- oral bioavailability [2]: low
- oral bioavailability [5]: high

Compound: COc1ccc2[nH]c([S+]([O-])Cc3ncc(C)c(OC)c3C)nc2c1 (stereo not drawn) [omeprazole, reference compound]
- Fold change of mRNA expression level CYP1A2 (CYP1A2 mRNA; hepatocyte lot Hu1487): 35.9 fold
- Fold change of mRNA expression level CYP1A2 (CYP1A2 mRNA; hepatocyte lot Hu8114): 20.7 fold
- Fold change of mRNA expression level CYP1A2 (CYP1A2 mRNA; hepatocyte lot Hu8123): 59.2 fold

Compound: CC1CCC(C(C)C)C(OC(=O)OC(C)OC(=O)C2C3CC(F)C(N)(C(=O)O)C32)C1 (stereo not drawn) [MGS0274]
- fraction unbound at 5 h [6]: 0.039 to 0.043
- Formation rate of MGS0008 ([7]; human kidney S9 0.25 mg/mL, MGS0274 besylate 10 μmol/L, 37°C, MGS0008 not detected in the reaction mixture): no apparent hydrolytic activity
- stability in serum ([7]; human serum): stable
- stability in serum [8]: unstable
- stability in serum [9]: stable
- fraction unbound at 5 h [10]: 0.065 to 0.076
- metabolite profile of MGS0274 [11]: nearly and completely hydrolyzed to MGS0008
- metabolite profile of MGS0274 [12]: nearly and completely hydrolyzed to MGS0008
- stability in buffers (Stability in buffers): confirmed
- metabolite profile of MGS0274 [13]: nearly and completely hydrolyzed to MGS0008

Compound: CC(C)[C@@H]1CC[C@@H](C)C[C@H]1O [l‐menthol]
- acceptable daily intake [14]: 4 mg/kg

Compound: CCC1(c2ccccc2)C(=O)NC(=O)NC1=O [phenobarbital, reference compound]
- Fold change of mRNA expression level CYP2B6 (CYP2B6 mRNA; hepatocyte lot Hu1487): 16.4 fold
- Fold change of mRNA expression level CYP2B6 (CYP2B6 mRNA; hepatocyte lot Hu8114): 35.1 fold
- Fold change of mRNA expression level CYP2B6 (CYP2B6 mRNA; hepatocyte lot Hu8123): 45.7 fold

Compound: N[C@@]1(C(=O)O)CC[C@H]2[C@H](C(=O)O)[C@H]21 [LY354740, (+)‐2‐aminobicyclo[3.1.0]hexane‐2,6‐dicarboxylic acid]
- oral bioavailability [2]: low
- oral bioavailability [15]: high

Compound: C[C@H](N)C(=O)N[C@@]1(C(=O)O)CC[C@H]2[C@H](C(=O)O)[C@H]21 [LY544344]
- oral bioavailability compared with parent compounds [2]: improved oral bioavailability
